± gives the expanded uncertainty stated by the source.
Assays:
[1] = Molar enthalpy of transition or fusion; conditions: Crystal; DSC
[2] = molar heat capacity at constant pressure; conditions: 101.33 kPa, Crystal
[3] = Crystal; DTA

c1cc2ccc3ccc4ccc5ccc6ccc1c1c2c3c4c5c61 [coronene]
Conditions	Molar enthalpy of transition or fusion [kJ/mol]	Normal melting temperature [°C]
[1]	21.2 ± 1.5	–
[3]	–	436 ± 1.6

molar heat capacity at constant pressure [J/K/mol], [2]
Conditions	DSC	Small sample (50 mg) DSC
295 K	–	312.97 ± 6.3
298.15 K	317.46 ± 14	317.17 ± 6.3
300 K	–	318.97 ± 6.4
310 K	–	333.99 ± 6.7
320 K	–	344.5 ± 6.9
330 K	–	355.32 ± 7.1
340 K	–	366.43 ± 7.3
350 K	–	373.94 ± 7.5
360 K	–	383.85 ± 7.7
370 K	–	394.66 ± 7.9
380 K	–	405.18 ± 8.1
410 K	–	417.19 ± 8.3
420 K	–	422.3 ± 8.4
430 K	–	435.51 ± 8.7
440 K	–	439.12 ± 8.8
450 K	–	447.82 ± 9
460 K	–	453.83 ± 9.1
470 K	–	463.44 ± 9.3
478 K	–	470.65 ± 9.4
